Test results taken from PMC9382865, “Infigratinib Reduces Fibroblast Growth Factor 23 (FGF23) and Increases Blood Phosphate in Tumor‐Induced Osteomalacia” (JBMR Plus, 2022).

What was measured:
[1] = design: method as in earlier work; details: subjects with cholangiocarcinoma; no reactions above grade 2; cited from earlier work
PMT metastases = system: PMT metastases; design: method as in PMID 32905668; details: one patient with metastatic TIO, while on therapy, cited from earlier work
[2] = Strength assessments and patient-reported quality-of-life outcomes; assay type: in vivo, human; design: RAND – Emotional well-being: scale not given here; details: for Grip Strength Evaluation: baseline 15+/-12; for PROMIS – Mobility Item Bank T score (higher = better): baseline 38+/-7; for RAND – Role limitations due to physical health problems: baseline 44+/-13; for RAND SF-36 Physical Functioning (0-100, higher better): baseline 46+/-19; for RAND – Energy/Fatigue: baseline 50+/-29; for RAND – Bodily Pain: baseline 52+/-29; for PROMIS – Fatigue 8A Short Form T score (higher = increased fatigue): baseline 55+/-8; for PROMIS – Pain Interference 8A short form T score (higher = increased pain interference): baseline 56+/-4; for RAND – Social functioning: baseline 59+/-37; for RAND – General health perceptions: baseline 60+/-11; for RAND – Emotional well-being: baseline 67+/-15; for RAND – Role limitations due to emotional health problems: baseline 67 +/-27; for Pinch Test: baseline 6.8 +/-4; for 5x Sit to stand: baseline 15+/-7; for DASH score (0 no disability, 100 severe disability): baseline 16+/-5
Procedure: (§1) Safety, tolerability, and efficacy were evaluated during in‐person visits every 4 weeks at the NIH Clinical Center and included a physical exam, ophthalmologic exam, patient‐reported outcome measures and strength assessments. The Disabilities of Arm Shoulder and Hand Outcome Measurement (DASH) questionnaire was used to measure self‐reported upper extremity symptoms and disability. The RAND 36‐item Short Form Health Survey (RAND SF‐36) version 1.0 was performed to determine effects of infigratinib on health‐related quality of life over the duration of the study. Patient Reported Outcomes Measurement Information System (PROMIS) item banks for fatigue (PROMIS SF v1.0‐Fatigue 8a), mobility (PROMIS Bank v2.0 – Mobility), and pain interference (PROMIS SF v1.1‐Pain Interference 8a) were also performed. Strength assessments included a Six‐Minute Walk Test, Grip Strength assessment, Pinch Strength assessment, and Five Time Sit to Stand. The Grip Strength assessment was performed on the dominant hand using a JAMAR Hand Dynamometer (Sammons Preston, Inc., Bolingbrook, IL, USA) and three successive trials were averaged to determine the final score. The Pinch Strength assessment was performed using the Exacta Hydraulic Pinch Gauge (North Coast Medical, Inc., Morgan Hill, CA, USA) with three successive trials averaged for the final score.

[3] = system: FGF23 (intact and C-terminal), blood phosphate; experiment: Biochemical response (iFGF23, cFGF23, phosphate, 1,25D, TRP) in patients with TIO on daily infigratinib; assay type: in vivo, human
Procedure: Subjects received oral daily doses of infigratinib for up to 24 weeks. The initial dose of 75 mg daily was based on studies investigating infigratinib use in subjects with cholangiocarcinoma, as well as our clinical experience with two NIH patients with TIO who had previously participated in an infigratinib trial outside of the NIH (ClinicalTrials.gov NCT02160041). After 8 weeks on therapy, dose escalation and de‐escalation of drug was determined by investigators based on tolerability and changes in C‐terminal FGF23 (cFGF23) levels. Planned dose escalation would occur by 25 mg every 8 weeks to a maximum dose of 125 mg/d if cFGF23 levels were not suppressed to <100 relative units (RU)/mL. De‐escalations or interruptions would occur if a subject experienced an adverse event, including hyperphosphatemia. A cFGF23 assay that measures both the active intact FGF23 molecule and inactivated C‐terminal fragments was used for titration purposes rather than an intact FGF23 (iFGF23) assay because the cFGF23 assay was the only commercially available option at the time.
(§2) Serial sampling was performed every 2 hours for 24 hours after the first dose of infigratinib to evaluate the pharmacokinetics and pharmacodynamics of the drug. Subsequently, laboratory tests were performed every 2 weeks. Routine blood and urine chemistries were performed at the NIH Clinical Center Department of Laboratory Medicine during inpatient stays and outpatient visits. Laboratory testing in the intervening weeks were performed either at the NIH or at a local laboratory, depending on the patient's proximity to the NIH. Infigratinib levels were also measured at weeks 4 and 8.
(§3) Biochemical testing included measurement of routine chemistries, 1,25D (radioimmunoassay; Mayo Medical Laboratories, Rochester, MN, USA), cFGF23 (ELISA; Immutopics International, San Clemente, CA, USA; Mayo Medical Laboratories), iFGF23 (ELISA; Immutopics International), C‐telopeptide (CTx) (electrochemiluminescence immunoassay; Mayo Medical Laboratories), and procollagen 1 intact N‐terminal (P1NP) (competitive radioimmunoassay; Mayo Medical Laboratories). Infigratinib levels were measured by Q2 Lab Solutions (Durham, NC, USA).
Tubular reabsorption of phosphate (TRP) was calculated using the following equation: 100 × [1 – (urine phosphate × serum creatinine)/(serum phosphate × urine creatinine)] and maximum renal tubular phosphate reabsorption in mass per unit volume of glomerular filtrate (TmP/GFR) was determined using the following equations: for TRP ≤0.86 (86%): TmP∕GFR = TRP × phosphate; for TRP >0.86 (86%): TmP∕GFR = (0.3 × TRP)/[1 − (0.8 × TRP)] ×phosphate.^( [20] ^)
At the end of week 24, patients still on therapy were admitted again to the NIH Clinical Center to monitor off‐drug effects with daily blood and urine sampling × 7 days. Subjects with persistent biochemical remission after 7 days would be monitored as outpatients off therapy for 12 additional weeks. Subjects with normal phosphate levels on infigratinib but without persistent biochemical response on cessation were considered for an optional extension phase.

[4] = Safety and adverse events (CTCAE) in the phase 2 TIO trial; assay type: in vivo, human
Procedure: as §1
The primary objective of the study was to induce a persistent metabolic remission, defined by normalization of FGF23 and phosphate after study drug discontinuation. Secondary objectives included evaluating the effects of infigratinib on mineral homeostasis, radiographic appearance of PMTs, quality of life, and muscle strength. Key biochemical end points included changes in iFGF23, cFGF23, phosphate, 1,25D, TRP, and TmP/GFR. Because the study closed prematurely with only four patients enrolled, results were primarily descriptive. Adverse events were summarized by frequency and percentage. Continuous variables were presented as mean ± standard deviation (SD). Linear mixed effects models were fitted to the repeated measures data collected from the 24‐hour serial sampling and the first 8 weeks of therapy when the patients were on the same infigratinib dose (75 mg daily) because, after this point, dose reductions and interruptions occurred. Analysis was performed using SAS (version 9.4; SAS Institute, Inc., Cary, NC, USA). Graphs were produced using GraphPad Prism 8 (GraphPad Software, Inc., La Jolla, CA, USA).

[5] = 24-hour pharmacokinetics after the first oral dose of infigratinib 75 mg in patients with TIO; assay type: in vivo; details: human, blood
Procedure: as §2, §3

[6] = system: phosphaturic mesenchymal tumors; experiment: 18F-FDG-PET/CT and 68Ga-DOTATATE-PET/CT of tumors before and after infigratinib; assay type: in vivo, human
Procedure: In patients with identifiable tumors, recent prior imaging was obtained from the patient record. The imaging studies that best characterized their tumor prior to therapy (18Flouride‐Fluorodeoxyglucose (FDG) DG‐PET/CT and/or 68Gallium (68Ga)‐DOTATATE‐PET/CT) were repeated at the 24‐week visit, if clinically indicated, and the changes were assessed.

[7] = Subject 2, 75 mg then 50 mg daily, up to 24 weeks
[8] = Subject 1, single oral dose 75 mg
[9] = Subject 2, single oral dose 75 mg
[10] = Subject 3, single oral dose 75 mg
[11] = Subject 4, single oral dose 75 mg

- AUC [5, 8]: 89.7 ng·h/mL
- Cmax [5, 8]: 28.6 ng/mL
- Tmax [5, 8]: 2 h
- half-life [5, 8]: 2.73 h
- AUC [5, 9]: 1090 ng·h/mL
- Cmax [5, 9]: 176 ng/mL
- Tmax [5, 9]: 2 h
- half-life [5, 9]: 7.75 h
- AUC [5, 10]: 133 ng·h/mL
- Cmax [5, 10]: 23.8 ng/mL
- Tmax [5, 10]: 4 h
- half-life [5, 10]: 3.02 h
- AUC [5, 11]: 764 ng·h/mL
- Cmax [5, 11]: 67.9 ng/mL
- Tmax [5, 11]: 6 h
- half-life [5, 11]: 7.62 h
Compound: CCN1CCN(c2ccc(Nc3cc(N(C)C(=O)Nc4c(Cl)c(OC)cc(OC)c4Cl)ncn3)cc2)CC1 [Infigratinib]
- Blurred vision, share of patients [1]: 21%
- Dry eye, including keratitis, share of patients [1]: 44%
- FGF23 change (PMT metastases): significant decreases in FGF23
- Tumor burden (PMT metastases; reversed with cessation): profound reduction in tumor burden
- Grip Strength Evaluation ([2]; 8 Weeks, N=4, mean+/-SD): 18+/-9 kilograms
- PROMIS – Mobility Item Bank T score (higher = better) ([2]; 8 Weeks): 39+/-5
- RAND – Role limitations due to physical health problems ([2]; 8 Weeks): 68+/-31
- RAND SF-36 Physical Functioning (0-100, higher better) ([2]; 8 Weeks): 51+/-17
- RAND – Energy/Fatigue ([2]; 8 Weeks): 53+/-22
- RAND – Bodily Pain ([2]; 8 Weeks): 63+/-37
- PROMIS – Fatigue 8A Short Form T score (higher = increased fatigue) ([2]; 8 Weeks): 53+/-8
- PROMIS – Pain Interference 8A short form T score (higher = increased pain interference) ([2]; 8 Weeks): 52+/-6
- RAND – Social functioning ([2]; 8 Weeks): 78+/-21
- RAND – General health perceptions ([2]; 8 Weeks): 73+/-17
- RAND – Emotional well-being ([2]; 8 Weeks): 72+/-13
- RAND – Role limitations due to emotional health problems ([2]; 8 Weeks): 75+/-32
- Pinch Test ([2]; 8 Weeks, mean+/-SD): 6.8 +/-1 kilograms
- 5x Sit to stand ([2]; 8 Weeks, mean+/-SD): 14 ± 1 s
- DASH score (0 no disability, 100 severe disability) ([2]; 8 Weeks, mean+/-SD): 14+/-5
- 6 Minute Walk Test ([2]; 24 Weeks, N=4, mean+/-SD, baseline 474+/-250, normal range 391-751): 474+/-250 496+/-173 meters
- PROMIS – Mobility Item Bank T score (higher = better) ([2]; 24 Weeks): 39+/-3
- RAND – Role limitations due to physical health problems ([2]; 24 Weeks): 25+/-50
- RAND SF-36 Physical Functioning (0-100, higher better) ([2]; 24 Weeks): 40+/-6
- RAND – Energy/Fatigue ([2]; 24 Weeks): 49+/-33
- RAND – Bodily Pain ([2]; 24 Weeks): 36+/-2.5
- PROMIS – Fatigue 8A Short Form T score (higher = increased fatigue) ([2]; 24 Weeks): 52+/-9
- PROMIS – Pain Interference 8A short form T score (higher = increased pain interference) ([2]; 24 Weeks): 53+/-9
- RAND – Social functioning ([2]; 24 Weeks): 72+/-33
- RAND – General health perceptions ([2]; 24 Weeks): 71+/-18
- RAND – Emotional well-being ([2]; 24 Weeks): 62+/-10
- RAND – Role limitations due to emotional health problems ([2]; 24 Weeks): 41.7+/-50
- Pinch Test ([2]; 24 Weeks, mean+/-SD): 7+/-1 kilograms
- 5x Sit to stand ([2]; 24 Weeks, mean+/-SD): 11 ± 1 s
- Grip Strength Evaluation ([2]; 24 Weeks, mean+/-SD): 16+/-1 kilograms
- DASH score (0 no disability, 100 severe disability) ([2]; 24 Weeks, mean+/-SD): 12+/-8
- TRP change ([3]; 75 mg daily, by week 8): increased in all patients
- cFGF23 decrease from baseline [3, 7]: 89%
- iFGF23 decrease from baseline [3, 7]: 95%
- Reduction in cFGF23 ([3]; Subject 2, first 24 hours after first 75 mg dose): 82%
- Biochemical response while on therapy ([3]; Subject 2, neither intact nor C-terminal FGF23 ever normalized): significant biochemical response
- iFGF23 nadir ([3]; Subject 2, normal <54 pg/mL): 171 pg/mL
- cFGF23 nadir ([3]; Subject 2, normal <180 RU/mL): 241 RU/mL
- Metabolic response while on therapy ([3]; Subjects 1, 3 and 4, reversed rapidly with drug cessation): complete metabolic response
- Biochemical response ([3]; all patients, 75 mg daily, week 8): partial biochemical response
- Phosphate levels change ([3]; first 24 hours after first 75 mg dose, p < 0.0001, none exceeded lower limit of normal at hour 24): increased
- iFGF23 change ([3]; first 24 hours after first 75 mg dose, p < 0.001): decreased significantly
- Enduring metabolic remission (persistently normal FGF23 and blood phosphate following drug discontinuation), primary objective ([3]; four TIO patients, up to 24 weeks daily oral): no subject achieved the primary objective
- Serious adverse events ([4]; 4 subjects): No subjects experienced serious adverse events
- Total Number of Adverse Events ([4]; 4 subjects): 111
- Grade 3 AEs (CTCAE) ([4]; both improved following drug interruption): increased alanine aminotransferase and decreased neutrophil count in subject 2
- Corneal keratitis with blurred vision ([4]; continuous daily dosing, drug interruptions required in two patients): all patients developed corneal keratitis with blurred vision
- Time to normalization of vision after infigratinib discontinuation ([4]; in vivo): ≤ 60 days
- Number of AEs considered possibly, probably, or definitely related to infigratinib ([4]; of 111 AEs): 87
- Corneal scarring, share of subjects ([4]; subjects who developed ocular keratitis on infigratinib): 50%
- Tumor size change after treatment ([6]; Subjects 1 and 2, after 6 months): without appreciable change in size
- Reduction of SUVmax of the PMTs after treatment ([6]; all studies except Subject 1 68Ga scans): greater than 40%
